Measurements as given in ChEMBL document CHEMBL1201862, “PubChem BioAssay data set” (2004).
Where a name gives a salt, the structure may show the parent alone. Active and inactive are the calls of the source.

Columns and labels:
[1] = Vero E6 cell cytotoxicity, dose response, cytotoxicity control for non-replicating M. tuberculosis project, secondary assay (AID 492998); format: functional, VeroE6; conditions: Vero C1008
[2] = HepG2 cell cytotoxicity, dose response, cytotoxicity control for non-replicating M. tuberculosis project (AID 489018); format: functional; conditions: Mycobacterium tuberculosis
cells = format: functional
[3] = THP-1 cell cytotoxicity, dose response, cytotoxicity control for non-replicating M. tuberculosis project (AID 489025); format: functional
[4] = target: T1, Microphthalmia-associated transcription factor (Homo sapiens, UniProt O75030); test: reducers of TRPM1 reporter luminescence, concentration series – cell-based, SK-MEL-5, cherry-picked, set 3, MITF inhibitor project, dose response (AID 493073); format: functional;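 also: SK-MEL-5 melanoma cells with luciferase driven by the MITF target TRPM1 promoter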
T1 sequence (O75030 whole entry): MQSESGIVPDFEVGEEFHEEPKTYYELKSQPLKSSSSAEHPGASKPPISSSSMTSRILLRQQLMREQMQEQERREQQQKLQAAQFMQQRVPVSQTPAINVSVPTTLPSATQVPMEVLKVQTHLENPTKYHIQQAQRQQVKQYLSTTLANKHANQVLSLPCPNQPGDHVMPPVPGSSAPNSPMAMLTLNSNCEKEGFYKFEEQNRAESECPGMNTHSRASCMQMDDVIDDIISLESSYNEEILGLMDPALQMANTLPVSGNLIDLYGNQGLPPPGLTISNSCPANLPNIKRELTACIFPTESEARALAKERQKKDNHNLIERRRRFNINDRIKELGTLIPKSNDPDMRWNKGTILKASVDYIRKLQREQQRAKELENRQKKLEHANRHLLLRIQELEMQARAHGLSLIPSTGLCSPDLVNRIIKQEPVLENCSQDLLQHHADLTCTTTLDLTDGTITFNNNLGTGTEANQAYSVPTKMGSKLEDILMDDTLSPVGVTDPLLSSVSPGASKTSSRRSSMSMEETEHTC

[5] = growth inhibition of yeast DHODH-expressing 3D7 parasites – SYBR Green, dry powder samples, dose response (AID 1159570); format: functional, cell-based;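 also: parasite growth measured after 72 hours of compound exposure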
[6] = Dd2 malaria parasite growth inhibition potency – SYBR Green, dry powder samples, dose response (AID 1159566); format: functional, cell-based;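 also: potency for growth inhibition with lower SYBR green DNA signal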
[7] = growth inhibition of PfATP4-mutant resistant parasites – NITD609-resistant line, SYBR Green, dry powder, dose response (AID 1159571); format: functional, cell-based;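 also: parasites synchronized at ring stage by sorbitol before testing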
[8] = Dd2 parasite growth inhibition in erythrocytes – SYBR Green, dry powder samples, set 9, dose response (AID 1159568); format: functional, cell-based
[9] = toxicity to human HepG2 hepatoma cells – cell-based, plate reader, dry powder samples, cytotoxicity control, dose response (AID 1159569); format: functional;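 also: inhibitor potency with signal falling toward the positive control level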
[10] = P. falciparum Dd2 growth inhibitors, dose response, SYBR Green, cherry-picked samples (AID 1159567); format: functional, cell-based
Cytochrome P450 2D6 = Cytochrome P450 2D6 (Homo sapiens, UniProt P10635);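 also: CYP2D6 member of a cytochrome P450 panel assay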
[11] = target: Voltage-gated inwardly rectifying potassium channel KCNH2 (Homo sapiens, UniProt Q12809); conditions: Potency;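 also: confirmatory quantitative high-throughput screen measuring inhibition of hERG channel activity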
Cytochrome P450 3A4 = Cytochrome P450 3A4 (Homo sapiens, UniProt P08684);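 also: CYP3A4 tested as one member of a cytochrome P450 panel screen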
[12] = target: T2, Short transient receptor potential channel 4 (Mus musculus, UniProt Q9QUQ5); test: calcium entry via TRPC4 opening agents – cell-based, HEK293 TRPC4/mu-opioid, Fluo-4 calcium, dose response (AID 434937); format: functional
T2 sequence (Q9QUQ5 whole entry): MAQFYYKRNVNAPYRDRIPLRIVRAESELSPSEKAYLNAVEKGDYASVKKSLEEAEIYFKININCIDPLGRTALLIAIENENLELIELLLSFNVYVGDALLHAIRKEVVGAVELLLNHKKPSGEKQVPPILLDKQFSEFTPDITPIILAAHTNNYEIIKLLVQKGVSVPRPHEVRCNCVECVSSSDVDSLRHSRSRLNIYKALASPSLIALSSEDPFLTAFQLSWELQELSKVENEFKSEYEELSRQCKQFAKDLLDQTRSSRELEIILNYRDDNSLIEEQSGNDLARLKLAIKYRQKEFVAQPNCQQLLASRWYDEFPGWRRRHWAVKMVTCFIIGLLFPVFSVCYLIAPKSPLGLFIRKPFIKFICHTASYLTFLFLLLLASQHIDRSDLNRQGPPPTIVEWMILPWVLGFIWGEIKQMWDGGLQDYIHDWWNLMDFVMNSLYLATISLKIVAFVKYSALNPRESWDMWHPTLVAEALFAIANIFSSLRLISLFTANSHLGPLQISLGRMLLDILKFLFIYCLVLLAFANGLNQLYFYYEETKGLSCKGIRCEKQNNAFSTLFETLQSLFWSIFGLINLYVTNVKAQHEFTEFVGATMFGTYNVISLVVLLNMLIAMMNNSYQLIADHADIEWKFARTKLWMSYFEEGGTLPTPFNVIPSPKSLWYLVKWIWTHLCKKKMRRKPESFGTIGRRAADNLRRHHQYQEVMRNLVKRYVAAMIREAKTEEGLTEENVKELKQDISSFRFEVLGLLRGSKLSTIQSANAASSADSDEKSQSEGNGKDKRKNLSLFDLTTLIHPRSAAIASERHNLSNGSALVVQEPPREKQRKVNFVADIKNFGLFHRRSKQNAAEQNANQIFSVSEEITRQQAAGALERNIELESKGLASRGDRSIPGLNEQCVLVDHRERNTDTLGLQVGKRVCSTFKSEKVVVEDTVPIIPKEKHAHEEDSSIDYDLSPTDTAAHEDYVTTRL

Protein skinhead-1 = target: T3, Protein skinhead-1 (Caenorhabditis elegans, UniProt P34707); format: functional
T3 sequence (P34707 whole entry): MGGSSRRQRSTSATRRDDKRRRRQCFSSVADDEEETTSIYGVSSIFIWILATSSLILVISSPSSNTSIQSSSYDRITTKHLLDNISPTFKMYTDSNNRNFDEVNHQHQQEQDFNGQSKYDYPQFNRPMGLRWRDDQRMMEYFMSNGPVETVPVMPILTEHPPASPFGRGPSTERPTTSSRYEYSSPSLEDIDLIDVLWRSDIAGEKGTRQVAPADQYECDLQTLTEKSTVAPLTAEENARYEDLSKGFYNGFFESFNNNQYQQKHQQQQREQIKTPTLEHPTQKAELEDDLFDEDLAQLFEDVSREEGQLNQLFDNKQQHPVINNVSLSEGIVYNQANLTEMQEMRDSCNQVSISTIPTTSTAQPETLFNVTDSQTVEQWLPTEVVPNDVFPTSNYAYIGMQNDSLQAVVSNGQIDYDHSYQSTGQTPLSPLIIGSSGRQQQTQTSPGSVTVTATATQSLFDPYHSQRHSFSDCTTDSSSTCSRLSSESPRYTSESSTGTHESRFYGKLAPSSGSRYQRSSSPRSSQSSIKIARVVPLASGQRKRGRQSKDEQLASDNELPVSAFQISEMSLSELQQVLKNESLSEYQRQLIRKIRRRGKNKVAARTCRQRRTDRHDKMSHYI

HEK293 = test: EBV LMP1 TES2 canonical NF-kB signalling blockers – cell-based, HEK293, luciferase, cherry-pick, dose response (AID 588343); format: functional; conditions: Homo sapiens
[13] = general cell-killing toxicity readout – plate reader, dry powder samples, cytotoxicity control for PAX8 inhibitor project, dose response (AID 743021); format: functional, cell-based
Paired box protein Pax-8 = Paired box protein Pax-8 (Homo sapiens, UniProt Q06710); test: PAX8 transcriptional activity inhibition in RMG-I – RMG-I cells, luciferase, cherry-pick, dose response (AID 687027); format: functional, cell-based;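 also: luciferase reporter driven by Pax8 target thyroperoxidase promoter measured by SteadyGlo luminescence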
Chain of Paired box protein Pax-8 (Q06710 whole entry): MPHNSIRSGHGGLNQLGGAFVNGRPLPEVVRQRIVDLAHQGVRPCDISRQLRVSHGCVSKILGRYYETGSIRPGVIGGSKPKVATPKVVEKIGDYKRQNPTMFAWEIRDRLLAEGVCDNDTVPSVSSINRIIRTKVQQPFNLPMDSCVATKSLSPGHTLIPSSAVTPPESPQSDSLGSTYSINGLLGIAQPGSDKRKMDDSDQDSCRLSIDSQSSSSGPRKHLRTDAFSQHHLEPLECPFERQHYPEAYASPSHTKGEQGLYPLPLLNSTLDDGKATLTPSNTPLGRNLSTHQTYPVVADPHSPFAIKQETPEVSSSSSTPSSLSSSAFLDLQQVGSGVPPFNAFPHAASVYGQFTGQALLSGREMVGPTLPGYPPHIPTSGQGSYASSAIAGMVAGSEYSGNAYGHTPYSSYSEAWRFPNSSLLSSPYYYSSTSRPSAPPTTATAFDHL

Chain of Voltage-gated inwardly rectifying potassium channel KCNH2 (Q12809 whole entry): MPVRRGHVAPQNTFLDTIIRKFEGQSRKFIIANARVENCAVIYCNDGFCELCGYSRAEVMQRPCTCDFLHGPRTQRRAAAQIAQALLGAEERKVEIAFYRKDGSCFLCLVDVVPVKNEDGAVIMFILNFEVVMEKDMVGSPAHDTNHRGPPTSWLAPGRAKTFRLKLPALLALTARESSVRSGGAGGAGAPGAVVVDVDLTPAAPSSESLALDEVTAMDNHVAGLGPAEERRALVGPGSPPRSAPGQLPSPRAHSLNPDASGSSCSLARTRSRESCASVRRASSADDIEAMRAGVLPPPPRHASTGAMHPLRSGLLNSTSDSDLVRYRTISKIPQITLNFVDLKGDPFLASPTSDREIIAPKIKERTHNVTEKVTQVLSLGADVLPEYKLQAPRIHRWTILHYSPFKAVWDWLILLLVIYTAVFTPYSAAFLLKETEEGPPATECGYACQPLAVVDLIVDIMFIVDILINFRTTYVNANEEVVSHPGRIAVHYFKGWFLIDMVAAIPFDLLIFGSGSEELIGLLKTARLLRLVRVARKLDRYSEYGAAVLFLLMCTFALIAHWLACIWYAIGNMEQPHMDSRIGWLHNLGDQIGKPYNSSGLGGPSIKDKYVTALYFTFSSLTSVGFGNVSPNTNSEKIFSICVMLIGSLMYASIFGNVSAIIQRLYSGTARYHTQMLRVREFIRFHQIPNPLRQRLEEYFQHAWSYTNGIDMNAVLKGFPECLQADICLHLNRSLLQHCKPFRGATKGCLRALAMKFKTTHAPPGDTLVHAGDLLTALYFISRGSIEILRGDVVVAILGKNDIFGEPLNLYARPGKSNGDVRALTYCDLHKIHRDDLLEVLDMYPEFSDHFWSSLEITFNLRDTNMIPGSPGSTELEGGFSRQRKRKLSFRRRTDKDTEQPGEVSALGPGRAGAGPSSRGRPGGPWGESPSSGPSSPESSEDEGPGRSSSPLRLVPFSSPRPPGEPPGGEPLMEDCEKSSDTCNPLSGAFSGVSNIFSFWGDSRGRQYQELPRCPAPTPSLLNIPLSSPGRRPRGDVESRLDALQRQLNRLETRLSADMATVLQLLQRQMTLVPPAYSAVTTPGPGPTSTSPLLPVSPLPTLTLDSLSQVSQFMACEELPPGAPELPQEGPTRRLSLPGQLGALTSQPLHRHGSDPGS
Chain of Cytochrome P450 2D6 (P10635 whole entry): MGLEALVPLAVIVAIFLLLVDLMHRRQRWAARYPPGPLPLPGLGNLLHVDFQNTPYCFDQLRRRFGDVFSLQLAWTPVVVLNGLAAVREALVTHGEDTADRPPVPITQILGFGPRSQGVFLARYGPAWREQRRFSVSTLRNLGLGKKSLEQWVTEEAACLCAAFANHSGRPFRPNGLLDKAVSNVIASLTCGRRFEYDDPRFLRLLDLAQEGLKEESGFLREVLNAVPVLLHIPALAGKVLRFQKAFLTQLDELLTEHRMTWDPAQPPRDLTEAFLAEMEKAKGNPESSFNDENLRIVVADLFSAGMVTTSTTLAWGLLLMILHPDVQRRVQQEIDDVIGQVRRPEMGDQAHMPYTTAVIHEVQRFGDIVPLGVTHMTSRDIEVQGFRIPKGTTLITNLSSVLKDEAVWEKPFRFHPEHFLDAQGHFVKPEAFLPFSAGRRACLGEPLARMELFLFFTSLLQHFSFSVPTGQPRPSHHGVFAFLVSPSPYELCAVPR
Chain of Cytochrome P450 3A4 (P08684 whole entry): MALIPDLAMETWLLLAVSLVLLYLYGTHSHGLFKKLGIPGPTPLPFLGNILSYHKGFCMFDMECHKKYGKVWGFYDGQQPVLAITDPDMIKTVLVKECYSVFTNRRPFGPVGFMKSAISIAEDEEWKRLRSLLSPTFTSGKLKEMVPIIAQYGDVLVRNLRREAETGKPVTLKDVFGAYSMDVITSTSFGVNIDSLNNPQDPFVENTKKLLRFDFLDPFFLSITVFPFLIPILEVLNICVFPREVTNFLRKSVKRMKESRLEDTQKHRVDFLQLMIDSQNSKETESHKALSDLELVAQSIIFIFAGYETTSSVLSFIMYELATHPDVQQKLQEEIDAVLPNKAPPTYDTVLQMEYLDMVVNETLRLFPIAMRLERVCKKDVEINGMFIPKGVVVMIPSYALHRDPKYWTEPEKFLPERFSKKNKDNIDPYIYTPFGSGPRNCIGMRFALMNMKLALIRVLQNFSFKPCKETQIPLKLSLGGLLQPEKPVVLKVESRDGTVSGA

Cc1onc(-c2ccccc2)c1C(=O)N/N=C/c1ccc([N+](=O)[O-])s1
active: CC50 [1] 11.4 µM | CC50 [2] 18.8 µM | IC50 (cells) 14.9 µM | CC50 [3] 13.5 µM | AC50 [4] 5.35 µM

C[C@H]1CN([C@@H](C)CO)C(=O)c2cc(/C=C/c3ccccc3)cnc2O[C@@H]1CN(C)C(=O)C1CCCCC1
active: AC50 [5] 0.905 µM | AC50 [6] 0.291 µM | AC50 [7] 0.464 µM | AC50 [8] 0.082 µM | AC50 [10] 0.54 µM
inactive: AC50 [9] > 100 µM

CC(C)NC(=O)N1[C@H](C#N)[C@H](c2ccc(C#CC3CCCCC3)cc2)[C@@H]1CO
active: AC50 [5] 1.58 µM | AC50 [6] 0.495 µM | AC50 [7] 0.676 µM | AC50 [8] 0.148 µM | AC50 [9] 28.6 µM | AC50 [10] 0.99 µM

COc1ccc(-c2ccc3c(c2)[C@H]2[C@H](CCN2C(=O)C2CCCC2)[C@H](CO)N3C)cc1
active: AC50 [5] 2.27 µM | AC50 [6] 1.42 µM | AC50 [7] 1.97 µM | AC50 [9] 16.1 µM | AC50 [10] 1.87 µM

Cn1cnc2c(NC3CCCC3)ncnc21
inconclusive: AC50 (Cytochrome P450 2D6) 20 µM | AC50 [11] 1.41 µM | AC50 (Cytochrome P450 3A4) 25.1 µM

Cc1ccc(-n2cc(CNCCc3nc(C)c[nH]3)c(-c3ccc(F)cc3)n2)cc1
active: CC50 [1] 17.4 µM | CC50 [2] 16.7 µM | EC50 [12] 6.68 µM | IC50 (cells) 11.5 µM | CC50 [3] 24.1 µM

O=c1cc(-c2ccccc2)oc2ccc3ccccc3c12 [BETA-NAPHTHOFLAVONE]
active: AC50 (HEK293) 0.646 µM | AC50 [13] 29.2 µM | AC50 (Paired box protein Pax-8) 5.9 µM
inactive: IC50 (Protein skinhead-1) > 100 µM

CN(C)CCC(c1ccccc1)c1ccccn1 (stereo not given) [PHENIRAMINE MALEATE]
inconclusive: AC50 [11] 15.8 µM
